The record followed here is patent US20220170052A1, “USE OF BACTERIOCIN-PRODUCING ETHANOLOGENS IN BIOFUEL PRODUCTION” (Wisconsin Alumni Research Foundation, priority 2016, published 2022).

Where no end group is shown, it is not given here.

The test system of assay [1] is wild lactic acid bacteria isolated from ethanol plants. Put plainly: Sensitivity of 15 wild lactic acid bacteria isolated from ethanol plants to inhibitors in corn steep liquor broth (CSL). The format is cell-based. The note with it: share of 15 wild LAB isolates, 33° C. From the text: Pediocin and brochocin are known to inhibit a particular range of LAB, and serve as exemplary model bacteriocins. Other bacteriocins with equal or even broader inhibition ranges may be, based on the present disclosure, synthesized and secreted in a similar manner. Table 8 compares the effectiveness of three different LAB bacteriocins against the three antibiotics most commonly utilized in the ethanol industry as well as another industry antimicrobial ingredient, hop acids. […] Fifteen strains representative of the organisms isolated from corn ethanol plants were utilized. […] The bacteriocins were utilized at either levels currently being produced (pediocin), at levels reported by others in the research literature (nisin) using commercially available preparations, or in an assay system that allows for analyzing relatively broad range of concentrations (brochocin inhibition assay by agar diffusion).

Assay [2] relates to ethanol plant isolates (LAB). Briefly: Growth (O.D.600) of ethanol plant isolates in corn mash extract with added pediocin. The assay is classed as cell-based, lactic acid bacteria. To be noted: Pediocin (Sigma) 500 ng/ml in corn mash extract, 37° C. From the text: Screening LAB isolated from ethanol plants for susceptibility to pediocin or brochocin. A variety of microorganisms are known to contaminate bioethanol fermentations, however LAB, particularly lactobacilli, are of primary concern (Beckner et al., 2011). The inventors' laboratory has isolated sixty-two LAB from four ethanol plants in the Midwest region of the United States. This ethanol plant culture collection contains isolates of Lb. fermentum, Lb. plantarum, Lb. brevis, Lb. mucosae, Lb. helveticus, Lb. heilongjiangensis, Lb. amylovorous, Lb. casei, Enterococcus sp. and Pediococcus pentosaceus strains that were gathered from all stages of the ethanol fermentation process. Thirty of these cultures were propagated from frozen by sequential transfers through MRS broth and corn mash extract, a filtrate obtained from corn mash from a bioethanol plant. Pediocin (Sigma) was added at 500 ng/ml to corn mash extract, inoculated with one of the ethanol plant isolates, incubated at 37° C. and growth was monitored by following O.D.600.

In assay [1] (Virginiamycin 3 μg/mL), Virginiamycin showed a Resistant of 13% and a Sensitive of 87%.
In assay [1] (Erythromycin 1 μg/mL), `CC[C@H]1OC(=O)[C@H](C)[C@@H](O[C@H]2C[C@@](C)(OC)[C@@H](O)[C@H](C)O2)[C@H](C)[C@@H](O[C@@H]2O[C@H](C)C[C@H](N(C)C)[C@H]2O)[C@](C)(O)C[C@@H](C)C(=O)[C@H](C)[C@@H](O)[C@]1(C)O` [Erythromycin] came in with a Resistant of 7% and a Sensitive of 93%.
In assay [1] (Penicillin 6 μg/mL), Penicillin returned a Resistant of 33% and a Sensitive of 77%.
For “pediocin (KYYGNGVTCGKHSCSVDWGKATTCIINNGAMAWATGGHQGNHKC; ends and bridges not checked; cysteine pairing not given here; UniProt P29430 19-62, looked up) [Class IIa bacteriocin; commercial preparation (Sigma), used at the concentration produced by Lb. casei E3 (pNZPed+)]”, the “ethanol plant isolates whose growth was inhibited” value in assay [2] is “five of the thirty”. Also, in assay [1] (Pediocin 500 IU/mL), the Resistant amounted to 67% and the Sensitive came out at 33%.
In assay [1] (Nisin 500 ng/mL), nisin displayed a Resistant of 13% and a Sensitive of 87%.
